Measured values: PMC6934184, “Selective DNA-PKcs inhibition extends the therapeutic index of localized radiotherapy and chemotherapy” (The Journal of Clinical Investigation, 2019)

Molecular target: T1, MAP3K9 (MLK1) (Homo sapiens, UniProt P80192)
T1 construct: purchased Thermo Fisher Scientific (Life Technologies) SelectScreen
Experiment: SelectScreen Z'LYTE
Type: biochemical
Outline: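 NU5455 was profiled across the SelectScreen Broad panel of kinase activity and binding assays. Z'LYTE reactions such as CSF1R ran at apparent Km ATP, while the Adapta CAMK1 assay used ATP listed as 10. Values are given as percent.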

T1 sequence (P80192 whole entry): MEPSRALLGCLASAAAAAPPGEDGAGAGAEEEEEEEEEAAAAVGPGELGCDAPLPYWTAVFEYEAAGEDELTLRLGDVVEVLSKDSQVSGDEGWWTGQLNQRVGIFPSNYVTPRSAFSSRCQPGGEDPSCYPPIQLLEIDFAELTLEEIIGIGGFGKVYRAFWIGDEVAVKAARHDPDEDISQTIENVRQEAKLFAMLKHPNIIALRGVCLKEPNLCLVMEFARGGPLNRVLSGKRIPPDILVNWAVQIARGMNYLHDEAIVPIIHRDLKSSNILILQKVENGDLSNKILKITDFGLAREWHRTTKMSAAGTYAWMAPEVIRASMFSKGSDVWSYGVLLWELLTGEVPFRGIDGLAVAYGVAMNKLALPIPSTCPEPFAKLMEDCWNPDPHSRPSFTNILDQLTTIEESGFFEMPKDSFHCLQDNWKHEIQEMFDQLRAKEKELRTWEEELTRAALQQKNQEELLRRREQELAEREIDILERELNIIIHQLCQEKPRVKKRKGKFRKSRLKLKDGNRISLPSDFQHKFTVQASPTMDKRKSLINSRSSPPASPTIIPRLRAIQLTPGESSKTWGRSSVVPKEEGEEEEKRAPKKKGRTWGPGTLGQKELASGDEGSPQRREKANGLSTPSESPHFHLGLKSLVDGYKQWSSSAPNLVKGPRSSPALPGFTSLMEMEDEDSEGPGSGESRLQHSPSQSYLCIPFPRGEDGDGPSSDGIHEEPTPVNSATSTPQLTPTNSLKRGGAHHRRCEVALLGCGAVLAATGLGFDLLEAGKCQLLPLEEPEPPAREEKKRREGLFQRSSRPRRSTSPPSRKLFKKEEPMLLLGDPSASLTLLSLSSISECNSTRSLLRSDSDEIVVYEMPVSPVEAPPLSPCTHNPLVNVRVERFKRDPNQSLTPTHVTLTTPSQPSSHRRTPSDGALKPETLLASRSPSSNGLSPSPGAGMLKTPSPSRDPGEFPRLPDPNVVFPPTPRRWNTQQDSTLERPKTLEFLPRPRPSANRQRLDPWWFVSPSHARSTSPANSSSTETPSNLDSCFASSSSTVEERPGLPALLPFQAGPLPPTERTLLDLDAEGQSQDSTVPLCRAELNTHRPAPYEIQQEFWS

CN(C(=O)CN1CCOCC1)c1ccc2sc3c(-c4cccc5c(=O)cc(N6CC7CCC(C6)O7)oc45)cccc3c2c1 [NU5455]
inhibition at 1 µM: -0.5%
